Measurements taken from patent US20240246942A1, “KINASE INHIBITORS FOR THE TREATMENT OF NEURODEGENERATIVE DISEASES” (priority 2020, published 2024).

What was measured:
[1] = biological target: CYP3A4 (Homo sapiens, UniProt P08684); assay: P450 cocktail inhibition assay, CYP3A4; type: in vitro ADME; settings: at 10 μM
Procedure: (§1) P450s inhibition for four major isoforms are evaluated using a cocktail inhibition assay where the metabolism of specific marker substrate (CYP1A2 phenaceten […] to acetaminophen); CYP2C9, tolbutamide hydroxylation to hydrocytolbutamide; CYP2D6, bufuralol hydroxylation to […]; and CYP3A4, midazolam hydroxylation to 1′-Hydroxymidazolam) in the presence or absence of 10 TM probe compound is evaluated. The concentration of each marker substrate is approximately its Km. […] Specific inhibitors for each isoform are included in each run to validate the system.

[2] = test system: SHSY5Y cells; assay: MTT cytotoxicity assay; type: cell-based; set-up: dose or concentration left out as unconfirmed; settings: 48 hrs, average of ≥2 experiments;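 also: compounds tested at 10 µM final concentration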
Procedure: A day before the assay, cells were plated at 50,000/well in 96 well plates in the culture medium. […] After the incubation, cells were subjected to MTT assay using Vybrant MTT Cell Proliferation kit as directed by the vendor (Life Technologies).

[3] = biological target: T1, CYP1A2 (Homo sapiens, UniProt P05177); assay: P450 cocktail inhibition assay, CYP1A2; type: in vitro ADME; settings: at 10 μM
T1 sequence (P05177 1-516): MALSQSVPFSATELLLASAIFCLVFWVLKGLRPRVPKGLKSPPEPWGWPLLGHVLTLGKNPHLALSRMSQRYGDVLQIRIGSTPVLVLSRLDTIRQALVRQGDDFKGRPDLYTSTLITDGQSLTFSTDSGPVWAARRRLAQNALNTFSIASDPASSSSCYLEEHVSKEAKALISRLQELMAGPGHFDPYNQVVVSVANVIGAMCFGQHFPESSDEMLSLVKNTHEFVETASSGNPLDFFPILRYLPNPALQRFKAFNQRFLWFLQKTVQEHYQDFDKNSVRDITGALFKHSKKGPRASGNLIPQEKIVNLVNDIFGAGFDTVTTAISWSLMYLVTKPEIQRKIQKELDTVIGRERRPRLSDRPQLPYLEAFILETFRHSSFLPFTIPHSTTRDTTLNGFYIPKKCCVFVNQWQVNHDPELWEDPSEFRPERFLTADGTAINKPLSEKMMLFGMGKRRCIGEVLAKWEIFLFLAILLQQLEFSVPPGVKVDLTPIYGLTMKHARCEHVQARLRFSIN
Procedure: as §1

[4] = biological target: CYP2D6 (Homo sapiens, UniProt P10635); assay: P450 cocktail inhibition assay, CYP2D6; type: in vitro ADME; settings: at 10 μM
Procedure: as §1

[5] = Microsomal stability, mouse; type: in vitro ADME; settings: mouse microsomes
[6] = biological target: CYP2C9 (Homo sapiens, UniProt P11712); assay: P450 cocktail inhibition assay, CYP2C9; type: in vitro ADME; settings: at 10 μM
Procedure: as §1

[7] = biological target: T2, panel of 374 wild-type kinases (Homo sapiens, UniProt O96017); assay: biochemical; settings: read-out: % Enzyme Activity (relative to DMSO controls), CHK2
T2 construct: purchased Reaction Biology Corporation

[8] = biological target: T3, panel of 374 wild-type kinases (Homo sapiens, UniProt Q6DT37); assay: biochemical; settings: read-out: % Enzyme Activity (relative to DMSO controls), DMPK2
T3 construct: purchased Reaction Biology Corporation

[9] = biological target: T4, panel of 374 wild-type kinases (Homo sapiens, UniProt P48730); assay: biochemical; settings: read-out: % Enzyme Activity (relative to DMSO controls), CK1d
T4 construct: purchased Reaction Biology Corporation

[10] = biological target: T5, panel of 374 wild-type kinases (Homo sapiens, UniProt Q15746); assay: biochemical; settings: read-out: % Enzyme Activity (relative to DMSO controls), MLCK/MYLK
T5 construct: purchased Reaction Biology Corporation

[11] = biological target: T6, panel of 374 wild-type kinases (Homo sapiens, UniProt Q07002); assay: biochemical; settings: read-out: % Enzyme Activity (relative to DMSO controls), CDK18/cyclin Y (PCTK3)
T6 construct: purchased Reaction Biology Corporation

[12] = biological target: T7, panel of 374 wild-type kinases (Homo sapiens, UniProt Q86Y07); assay: biochemical; settings: read-out: % Enzyme Activity (relative to DMSO controls), kinase VRK2
T7 construct: purchased Reaction Biology Corporation

[13] = biological target: T8, panel of 374 wild-type kinases (Homo sapiens, UniProt Q9Y2K2); assay: biochemical; settings: read-out: % Enzyme Activity (relative to DMSO controls), kinase SIK3
T8 construct: purchased Reaction Biology Corporation

[14] = biological target: T9, panel of 374 wild-type kinases (Homo sapiens, UniProt Q9P0L2); assay: biochemical; settings: read-out: % Enzyme Activity (relative to DMSO controls), MARK1
T9 construct: purchased Reaction Biology Corporation

[15] = biological target: T10, panel of 374 wild-type kinases (Homo sapiens, UniProt O94921); assay: biochemical; settings: read-out: % Enzyme Activity (relative to DMSO controls), CDK14/cyclin Y (PFTK1)
T10 construct: purchased Reaction Biology Corporation

[16] = biological target: T11, panel of 374 wild-type kinases (Homo sapiens, UniProt Q9H093); assay: biochemical; settings: read-out: % Enzyme Activity (relative to DMSO controls), kinase SNARK/NUAK2
T11 construct: purchased Reaction Biology Corporation
T11 sequence (Q9H093 1-628): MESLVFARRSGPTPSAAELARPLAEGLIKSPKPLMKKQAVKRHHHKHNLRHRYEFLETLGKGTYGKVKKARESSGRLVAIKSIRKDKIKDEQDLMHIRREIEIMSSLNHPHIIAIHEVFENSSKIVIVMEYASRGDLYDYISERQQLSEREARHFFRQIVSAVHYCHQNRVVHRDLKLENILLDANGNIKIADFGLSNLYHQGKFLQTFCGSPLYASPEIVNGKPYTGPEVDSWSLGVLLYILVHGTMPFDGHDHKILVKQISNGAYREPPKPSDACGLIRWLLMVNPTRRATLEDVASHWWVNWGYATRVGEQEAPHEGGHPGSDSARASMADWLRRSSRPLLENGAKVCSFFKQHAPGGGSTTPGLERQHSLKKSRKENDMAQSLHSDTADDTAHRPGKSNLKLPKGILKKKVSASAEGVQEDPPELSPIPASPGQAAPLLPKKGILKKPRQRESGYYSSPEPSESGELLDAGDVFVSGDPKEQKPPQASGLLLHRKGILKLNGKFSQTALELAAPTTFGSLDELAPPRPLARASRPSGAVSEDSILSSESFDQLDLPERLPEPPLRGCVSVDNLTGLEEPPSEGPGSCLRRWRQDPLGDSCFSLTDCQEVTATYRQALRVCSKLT

[17] = Microsomal stability, human; type: in vitro ADME; settings: human microsomes

T8 sequence (Q9Y2K2 whole entry): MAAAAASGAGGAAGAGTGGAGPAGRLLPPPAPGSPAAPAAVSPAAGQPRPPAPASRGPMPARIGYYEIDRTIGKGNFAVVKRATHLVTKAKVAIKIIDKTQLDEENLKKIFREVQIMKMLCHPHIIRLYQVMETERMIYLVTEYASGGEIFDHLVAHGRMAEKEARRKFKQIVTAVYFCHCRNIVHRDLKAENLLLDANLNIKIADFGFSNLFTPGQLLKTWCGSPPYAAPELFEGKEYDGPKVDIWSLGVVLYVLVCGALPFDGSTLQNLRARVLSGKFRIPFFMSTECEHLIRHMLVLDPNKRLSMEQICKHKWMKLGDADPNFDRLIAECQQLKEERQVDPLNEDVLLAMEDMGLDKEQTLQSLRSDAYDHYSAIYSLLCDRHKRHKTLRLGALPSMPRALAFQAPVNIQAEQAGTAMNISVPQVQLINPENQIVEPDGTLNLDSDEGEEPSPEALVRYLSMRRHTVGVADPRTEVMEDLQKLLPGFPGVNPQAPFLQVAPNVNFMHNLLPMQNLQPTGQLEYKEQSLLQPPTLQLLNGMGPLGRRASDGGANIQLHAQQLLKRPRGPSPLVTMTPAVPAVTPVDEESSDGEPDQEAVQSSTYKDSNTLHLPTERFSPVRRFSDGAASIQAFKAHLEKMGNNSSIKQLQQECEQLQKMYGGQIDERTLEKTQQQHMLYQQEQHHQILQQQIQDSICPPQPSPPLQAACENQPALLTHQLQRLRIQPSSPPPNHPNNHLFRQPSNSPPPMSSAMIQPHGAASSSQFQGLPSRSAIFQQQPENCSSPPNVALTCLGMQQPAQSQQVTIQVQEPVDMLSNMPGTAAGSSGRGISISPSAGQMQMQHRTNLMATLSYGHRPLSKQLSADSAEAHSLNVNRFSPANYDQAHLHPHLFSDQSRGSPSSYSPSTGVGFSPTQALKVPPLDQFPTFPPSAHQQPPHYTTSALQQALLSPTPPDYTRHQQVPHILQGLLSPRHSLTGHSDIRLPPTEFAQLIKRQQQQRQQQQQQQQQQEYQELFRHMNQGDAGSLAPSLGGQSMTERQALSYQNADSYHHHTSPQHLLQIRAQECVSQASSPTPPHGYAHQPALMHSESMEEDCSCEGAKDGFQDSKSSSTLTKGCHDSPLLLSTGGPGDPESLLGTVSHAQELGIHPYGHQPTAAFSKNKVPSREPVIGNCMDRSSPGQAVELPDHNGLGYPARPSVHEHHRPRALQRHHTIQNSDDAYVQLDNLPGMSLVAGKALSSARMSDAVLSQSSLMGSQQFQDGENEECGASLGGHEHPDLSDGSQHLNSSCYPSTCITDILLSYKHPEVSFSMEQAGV
Sequence of CYP3A4 (P08684 whole entry, canonical isoform): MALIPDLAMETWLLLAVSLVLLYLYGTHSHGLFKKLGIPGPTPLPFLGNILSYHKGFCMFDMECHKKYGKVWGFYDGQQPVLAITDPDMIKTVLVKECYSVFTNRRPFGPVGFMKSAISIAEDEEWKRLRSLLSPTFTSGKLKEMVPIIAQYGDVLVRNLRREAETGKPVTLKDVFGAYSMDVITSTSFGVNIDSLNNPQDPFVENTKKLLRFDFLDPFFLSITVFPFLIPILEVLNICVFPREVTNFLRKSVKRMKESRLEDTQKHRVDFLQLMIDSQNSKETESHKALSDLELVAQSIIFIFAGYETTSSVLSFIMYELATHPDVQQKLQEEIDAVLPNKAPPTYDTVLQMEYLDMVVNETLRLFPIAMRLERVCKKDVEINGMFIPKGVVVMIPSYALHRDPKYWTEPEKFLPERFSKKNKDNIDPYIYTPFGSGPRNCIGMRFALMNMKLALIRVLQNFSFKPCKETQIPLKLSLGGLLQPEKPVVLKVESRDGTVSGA
T10 sequence (O94921 whole entry): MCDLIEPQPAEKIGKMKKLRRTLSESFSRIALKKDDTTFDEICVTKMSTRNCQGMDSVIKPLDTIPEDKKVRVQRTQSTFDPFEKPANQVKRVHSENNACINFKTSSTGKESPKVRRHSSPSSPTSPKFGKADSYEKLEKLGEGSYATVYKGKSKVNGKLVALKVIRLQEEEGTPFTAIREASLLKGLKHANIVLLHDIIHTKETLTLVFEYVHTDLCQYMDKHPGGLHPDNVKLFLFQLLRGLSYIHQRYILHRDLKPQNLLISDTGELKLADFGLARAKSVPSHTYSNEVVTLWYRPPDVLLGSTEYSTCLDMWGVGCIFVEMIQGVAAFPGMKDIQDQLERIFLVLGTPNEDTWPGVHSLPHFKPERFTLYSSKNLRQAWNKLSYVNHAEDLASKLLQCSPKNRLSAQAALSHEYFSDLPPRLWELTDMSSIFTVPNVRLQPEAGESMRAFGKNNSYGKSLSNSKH
T7 sequence (Q86Y07 whole entry): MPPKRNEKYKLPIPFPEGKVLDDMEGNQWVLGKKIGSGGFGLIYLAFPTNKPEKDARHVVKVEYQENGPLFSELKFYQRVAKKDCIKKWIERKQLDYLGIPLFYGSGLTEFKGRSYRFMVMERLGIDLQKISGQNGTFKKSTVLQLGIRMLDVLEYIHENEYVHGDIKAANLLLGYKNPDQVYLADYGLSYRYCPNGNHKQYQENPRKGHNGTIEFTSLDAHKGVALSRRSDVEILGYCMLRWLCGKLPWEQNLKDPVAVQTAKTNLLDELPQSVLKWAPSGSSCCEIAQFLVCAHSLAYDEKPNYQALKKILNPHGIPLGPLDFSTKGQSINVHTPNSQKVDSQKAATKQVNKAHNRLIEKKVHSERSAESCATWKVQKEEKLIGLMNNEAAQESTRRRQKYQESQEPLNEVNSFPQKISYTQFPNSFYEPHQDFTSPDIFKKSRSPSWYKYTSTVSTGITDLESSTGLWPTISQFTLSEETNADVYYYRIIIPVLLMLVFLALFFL
T3 sequence (Q6DT37 whole entry): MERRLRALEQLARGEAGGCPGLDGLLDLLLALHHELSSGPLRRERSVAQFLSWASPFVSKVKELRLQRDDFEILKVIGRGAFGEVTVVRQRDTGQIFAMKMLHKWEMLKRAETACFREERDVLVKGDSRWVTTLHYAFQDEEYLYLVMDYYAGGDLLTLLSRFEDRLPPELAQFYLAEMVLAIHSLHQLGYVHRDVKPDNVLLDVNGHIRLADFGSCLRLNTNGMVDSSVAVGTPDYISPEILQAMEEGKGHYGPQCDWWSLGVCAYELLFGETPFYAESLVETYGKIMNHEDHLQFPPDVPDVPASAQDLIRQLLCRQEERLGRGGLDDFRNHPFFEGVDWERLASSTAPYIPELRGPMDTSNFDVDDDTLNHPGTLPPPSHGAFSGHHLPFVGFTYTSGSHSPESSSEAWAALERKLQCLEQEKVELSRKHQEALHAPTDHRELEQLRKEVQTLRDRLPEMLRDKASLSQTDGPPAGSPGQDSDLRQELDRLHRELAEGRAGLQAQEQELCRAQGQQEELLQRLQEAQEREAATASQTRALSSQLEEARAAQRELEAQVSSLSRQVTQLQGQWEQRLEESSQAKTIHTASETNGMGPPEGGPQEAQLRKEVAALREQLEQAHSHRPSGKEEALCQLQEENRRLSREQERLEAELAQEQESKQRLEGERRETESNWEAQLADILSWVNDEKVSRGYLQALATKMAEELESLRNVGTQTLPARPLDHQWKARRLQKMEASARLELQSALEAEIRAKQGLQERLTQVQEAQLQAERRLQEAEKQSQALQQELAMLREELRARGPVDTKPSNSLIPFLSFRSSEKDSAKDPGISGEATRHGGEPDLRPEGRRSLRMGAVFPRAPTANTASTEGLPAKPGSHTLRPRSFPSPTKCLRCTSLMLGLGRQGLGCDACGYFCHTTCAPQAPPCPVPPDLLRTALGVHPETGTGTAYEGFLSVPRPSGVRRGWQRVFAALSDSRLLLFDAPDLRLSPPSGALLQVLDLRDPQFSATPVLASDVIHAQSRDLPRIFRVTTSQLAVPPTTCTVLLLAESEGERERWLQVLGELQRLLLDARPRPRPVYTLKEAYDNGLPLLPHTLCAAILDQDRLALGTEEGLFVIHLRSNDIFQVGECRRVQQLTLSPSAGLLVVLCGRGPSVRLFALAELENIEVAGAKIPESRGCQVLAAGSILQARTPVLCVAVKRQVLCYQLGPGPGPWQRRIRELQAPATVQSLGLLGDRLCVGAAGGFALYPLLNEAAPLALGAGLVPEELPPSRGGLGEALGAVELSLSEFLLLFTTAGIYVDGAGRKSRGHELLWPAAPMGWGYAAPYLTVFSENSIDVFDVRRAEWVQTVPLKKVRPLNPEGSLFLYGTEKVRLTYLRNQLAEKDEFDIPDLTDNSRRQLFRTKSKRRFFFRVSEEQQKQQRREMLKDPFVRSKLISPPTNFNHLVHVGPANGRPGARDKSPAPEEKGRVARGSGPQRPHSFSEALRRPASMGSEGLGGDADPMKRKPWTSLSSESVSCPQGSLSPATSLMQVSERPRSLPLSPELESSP
T2 sequence (O96017 whole entry): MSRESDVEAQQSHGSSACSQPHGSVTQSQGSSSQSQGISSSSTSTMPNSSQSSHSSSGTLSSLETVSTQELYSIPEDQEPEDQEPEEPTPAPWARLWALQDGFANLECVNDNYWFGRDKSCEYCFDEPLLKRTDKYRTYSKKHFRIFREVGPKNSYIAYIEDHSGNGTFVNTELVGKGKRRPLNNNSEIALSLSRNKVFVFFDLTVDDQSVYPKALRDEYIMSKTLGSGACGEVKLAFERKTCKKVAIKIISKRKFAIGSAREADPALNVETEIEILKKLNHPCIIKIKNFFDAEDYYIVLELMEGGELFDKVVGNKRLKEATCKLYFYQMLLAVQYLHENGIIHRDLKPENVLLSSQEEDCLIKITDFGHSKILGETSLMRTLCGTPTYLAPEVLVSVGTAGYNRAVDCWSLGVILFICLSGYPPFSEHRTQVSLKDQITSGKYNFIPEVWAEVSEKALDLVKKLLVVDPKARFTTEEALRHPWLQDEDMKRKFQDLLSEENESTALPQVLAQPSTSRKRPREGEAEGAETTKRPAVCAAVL

SMILES	CYP-450 % inh. 3A4 [1]	MTT cell viability [2]	CYP-450 % inh. 1A2 [3]	CYP-450 % inh. 2D6 [4]	Mic. stability t1/2 Mouse [5]	CYP-450 % inh. 2C9 [6]	remaining activity at 5 µM [7]	remaining activity at 5 µM [8]	remaining activity at 5 µM [9]	remaining activity at 5 µM [10]	remaining activity at 5 µM [11]	remaining activity at 5 µM [12]	remaining activity at 5 µM [13]	remaining activity at 5 µM [14]	remaining activity at 5 µM [15]	remaining activity at 5 µM [16]	Mic. stability t1/2 Human [17]	also measured
O=C(Nc1cnn(-c2csc(C(=O)NC3COC3)c2)c1)Nc1ccccc1Cl [Compound 17, 4-(4-(3-(2-chlorophenyl)ureido)-1H-pyrazol-1-yl)-N-(oxetan-3-yl)thiophene-2-carboxamide]	−34%	104%	6%	−15%	0.4 h	8%	97.8%	87%	101%	97.5%	101%	103%	92.4%	96.3%	107%	99.8%	1.1 h	–
O=C(Nc1cnn(-c2csc(C(=O)NC3COC3)c2)c1)Nc1c(F)cccc1Cl [Compound 25, 4-(4-(3-(2-chloro-6-fluorophenyl)ureido)-1H-pyrazol-1-yl)-N-(oxetan-3-yl)thiophene-2-carboxamide]	24%	102%	36%	31%	1.2 h	48%	91.5%	119%	117%	95.9%	91.9%	102%	94.5%	108%	110%	97.8%	1.67 h	–
Cc1sc(C(=O)NC2COC2)cc1-n1cc(NC(=O)Nc2c(F)cccc2Cl)cn1 [Compound 27, 4-(4-(3-(2-chloro-6-fluorophenyl)ureido)-1H-pyrazol-1-yl)-5-methyl-N-(oxetan-3-yl)thiophene-2-carboxamide]	16%	111%	22%	1%	0.95 h	33%	–	–	–	–	–	–	–	–	–	–	1.83 h	remaining activity at 10 µM ([7]; 10 uM): 95.2%; remaining activity at 10 µM ([8]; 10 uM): 118%; remaining activity at 10 µM ([9]; 10 uM): 112%; remaining activity at 10 µM ([10]; 10 uM): 103%; remaining activity at 10 µM ([11]; 10 uM): 119%; remaining activity at 10 µM ([12]; 10 uM): 102%; remaining activity at 10 µM ([13]; 10 uM): 86.9%; remaining activity at 10 µM ([14]; 10 uM): 95.3%; remaining activity at 10 µM ([15]; 10 uM): 100%; remaining activity at 10 µM ([16]; 10 uM): 112%
